Measurements reported in ChEMBL document CHEMBL1129853, “Design and biological evaluation of a series of thiophene-based 3-hydroxy-3-methylglutaryl coenzyme a reductase inhibitors” (Bioorg Med Chem Lett, 1997).

How the values were obtained:
[1] = target: T1, 3-hydroxy-3-methylglutaryl-coenzyme A reductase (Rattus norvegicus, UniProt P51639); assay: Tested in vitro for the HMG-CoA reductase inhibitory activity in a microsomal preparation; format: microsomes, Microsome
T1 sequence (P51639 whole entry): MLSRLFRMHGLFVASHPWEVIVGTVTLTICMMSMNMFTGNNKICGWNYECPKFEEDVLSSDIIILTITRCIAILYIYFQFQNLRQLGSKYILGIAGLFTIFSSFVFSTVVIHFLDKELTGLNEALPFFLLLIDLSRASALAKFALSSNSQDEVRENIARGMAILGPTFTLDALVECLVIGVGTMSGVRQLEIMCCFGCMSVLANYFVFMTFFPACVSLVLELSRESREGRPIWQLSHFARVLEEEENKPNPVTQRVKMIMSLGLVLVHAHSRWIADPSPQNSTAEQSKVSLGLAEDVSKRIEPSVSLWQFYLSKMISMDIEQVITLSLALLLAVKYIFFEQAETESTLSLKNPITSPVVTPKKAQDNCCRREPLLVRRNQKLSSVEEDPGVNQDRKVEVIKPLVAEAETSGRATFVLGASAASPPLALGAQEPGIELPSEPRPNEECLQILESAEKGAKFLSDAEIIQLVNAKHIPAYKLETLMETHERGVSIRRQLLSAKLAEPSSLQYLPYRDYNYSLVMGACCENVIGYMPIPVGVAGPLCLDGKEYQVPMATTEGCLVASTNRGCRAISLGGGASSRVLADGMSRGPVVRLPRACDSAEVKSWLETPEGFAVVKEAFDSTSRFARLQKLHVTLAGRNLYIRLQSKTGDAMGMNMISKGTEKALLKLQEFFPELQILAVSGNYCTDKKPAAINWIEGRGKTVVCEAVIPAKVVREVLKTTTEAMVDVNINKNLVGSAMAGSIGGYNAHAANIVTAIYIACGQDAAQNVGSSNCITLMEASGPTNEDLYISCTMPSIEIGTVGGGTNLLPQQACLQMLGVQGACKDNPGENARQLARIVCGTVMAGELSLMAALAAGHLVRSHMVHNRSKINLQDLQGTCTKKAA

[2] = target: T2, 3-hydroxy-3-methylglutaryl-coenzyme A reductase (Rattus norvegicus) (UniProt P51639); assay: Tested in vitro for relative potency against HMG-CoA reductase in a microsomal preparation (relative to compactin =1); format: microsomes; conditions: Microsome
T2 sequence (whole entry): T1 sequence (P51639 whole entry)

Rattus norvegicus [3] = assay: Tested in vivo for the concentration required to produce 50% inhibition of the incorporation of [14C]acetate into cholesterol; format: functional
Rattus norvegicus [4] = assay: Tested in vivo for the concentration required to produce relative potency of the incorporation of [14C]acetate into cholesterol (relative to compactin=1); format: functional

Row | SMILES | IC50 [1] [nM] | Relative potency [2] | ED50 (Rattus norvegicus [3]) [mg/kg] | Relative potency (Rattus norvegicus [4])
1 | CC(C)c1sc(C(C)C)c(-c2ccc(F)cc2)c1/C=C/[C@@H](O)C[C@@H](O)CC(=O)[O-].[Na+] | 26 | 44 | 0.08 | 50
2 | CC(C)=Cc1sc(C(C)C)c(/C=C/[C@@H](O)C[C@@H](O)CC(=O)[O-])c1-c1ccc(F)cc1.[Na+] | 15 | 77 | 0.11 | 37
3 | COc1ccc(-c2c(-c3ccccc3)sc(C(C)C)c2/C=C/[C@@H](O)C[C@@H](O)CC(=O)O)cc1 | 2430 | 0.5 |  | 
4 | Cc1ccc(-c2sc(C(C)C)c(/C=C/[C@@H](O)C[C@@H](O)CC(=O)[O-])c2-c2ccc(F)cc2)cc1.[Na+] | 9.7 | 119 | 0.32 | 13
5 | CC(C)c1sc(-c2ccccc2)c(-c2cccc(C(F)(F)F)c2)c1/C=C/[C@@H](O)C[C@@H](O)CC(=O)O | 2980 | 0.4 |  | 
6 | CC(C)c1sc(-c2ccccc2)c(-c2cccs2)c1/C=C/[C@@H](O)C[C@@H](O)CC(=O)O | 1420 | 0.8 |  | 
7 | COCCOCc1sc(C(C)C)c(/C=C/[C@@H](O)C[C@@H](O)CC(=O)O)c1-c1ccc(F)cc1 | 206 | 5.6 |  | 
8 | CCCCCCCCc1c(-c2ccccc2)sc(C(C)C)c1/C=C/[C@@H](O)C[C@@H](O)CC(=O)O | > 10000 | < 0.1 |  | 
9 | CC(C)c1sc(-c2ccc(Cl)cc2)c(-c2ccc(F)cc2)c1/C=C/[C@@H](O)C[C@@H](O)CC(=O)[O-].[Na+] | 21 | 55 | 0.64 | 6.3
10 | CC(C)c1sc(-c2ccccc2)c(-c2ccc(-c3ccccc3)cc2)c1/C=C/[C@@H](O)C[C@@H](O)CC(=O)O | > 10000 | < 0.1 |  | 
11 | CC(C)c1sc(-c2ccccc2)c(C2CCCCC2)c1/C=C/[C@@H](O)C[C@@H](O)CC(=O)[O-].[Na+] | 202 | 5.7 | 0.57 | 7.1
12 | CC(C)c1sc(-c2ccccc2)c(-c2ccccc2F)c1/C=C/[C@@H](O)C[C@@H](O)CC(=O)O | 233 | 4.9 |  | 
13 | CC(C)c1sc(-c2ccccc2)c(-c2cccc(F)c2)c1/C=C/[C@@H](O)C[C@@H](O)CC(=O)O | 49 | 23 |  | 
14 | CC(C)c1sc(CO)c(-c2ccc(F)cc2)c1/C=C/[C@@H](O)C[C@@H](O)CC(=O)O | 325 | 4 |  | 
15 | CC(C)=Cc1c(-c2ccccc2)sc(C(C)C)c1/C=C/[C@@H](O)C[C@@H](O)CC(=O)O | 1000 | 1.2 |  | 
16 | COc1ccc(-c2sc(C(C)C)c(/C=C/[C@@H](O)C[C@@H](O)CC(=O)[O-])c2-c2ccc(F)cc2)cc1.[Na+] | 6.3 | 183 | 0.15 | 27
17 | CC[C@H](C)C(=O)O[C@H]1CCC=C2C=C[C@H](C)[C@H](CC[C@@H]3C[C@@H](O)CC(=O)O3)[C@H]21 [MEVASTATIN] | 1150 | 1 | 4.02 | 1
18 | CC(C)c1sc(C2CCCC2)c(-c2ccc(F)cc2)c1/C=C/[C@@H](O)C[C@@H](O)CC(=O)O | 570 | 2 |  | 
19 | CC(C)c1sc(-c2ccccc2)c(-c2ccccc2)c1/C=C/[C@@H](O)C[C@@H](O)CC(=O)[O-].[Na+] | 26 | 44 | 0.17 | 24
20 | Cc1sc(C(C)C)c(/C=C/[C@@H](O)C[C@@H](O)CC(=O)[O-])c1-c1ccccc1.[Na+] | 94 | 12 | 0.19 | 21
21 | CC(C)c1sc(-c2ccccc2)c(-c2ccc(F)cc2)c1/C=C/[C@@H](O)C[C@@H](O)CC(=O)[O-].[Na+] | 4.4 | 261 | 0.11 | 37
22 | CCCCCCCCc1sc(C(C)C)c(/C=C/[C@@H](O)C[C@@H](O)CC(=O)O)c1-c1ccc(F)cc1 | > 10000 | < 0.1 |  | 
23 | CC[C@H](C)C(=O)O[C@H]1C[C@@H](C)C=C2C=C[C@H](C)[C@H](CC[C@@H]3C[C@@H](O)CC(=O)O3)[C@H]21 [LOVASTATIN] | 530 | 2.2 | 0.38 | 11
24 | CC(C)c1sc(-c2ccccc2)c(C2CCCC2)c1/C=C/[C@@H](O)C[C@@H](O)CC(=O)O | 417 | 2.8 |  | 
